The source of these data is ChEMBL document CHEMBL1909046, “DrugMatrix in vitro pharmacology data”.

Series [1] addresses Sodium-dependent noradrenaline transporter (Homo sapiens, UniProt P23975). Kind of series: DRUGMATRIX: Norepinephrine Transporter radioligand binding (ligand: [125I] RTI-55). In kind it is cell membranes, MDCK, Membrane. The following applies: Not Active = under 50% inhibition at 10 µM.
In the next series the target is T1, Substance-K receptor (Homo sapiens, UniProt P21452). Note: in other assays of this panel Not Active means under 50% inhibition at 10 µM.
T1 sequence (P21452 whole entry): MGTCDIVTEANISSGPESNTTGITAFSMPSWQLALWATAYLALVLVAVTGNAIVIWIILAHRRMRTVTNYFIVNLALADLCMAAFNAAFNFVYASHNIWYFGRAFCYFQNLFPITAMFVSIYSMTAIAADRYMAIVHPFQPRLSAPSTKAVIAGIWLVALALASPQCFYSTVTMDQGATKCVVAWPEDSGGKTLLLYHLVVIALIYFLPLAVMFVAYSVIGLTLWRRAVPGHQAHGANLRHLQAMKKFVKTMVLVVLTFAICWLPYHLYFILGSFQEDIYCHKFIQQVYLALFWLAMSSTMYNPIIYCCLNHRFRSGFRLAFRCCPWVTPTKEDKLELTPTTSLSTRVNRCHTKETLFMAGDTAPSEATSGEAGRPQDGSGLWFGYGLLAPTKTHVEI
Format: cell membranes, CHO, Membrane. The following applies: cho.

The target of series [2] is T2, Vasoactive intestinal polypeptide receptor 1 (Homo sapiens, UniProt P32241). Note: in other assays of this panel Not Active means under 50% inhibition at 10 µM.
T2 sequence (P32241 whole entry): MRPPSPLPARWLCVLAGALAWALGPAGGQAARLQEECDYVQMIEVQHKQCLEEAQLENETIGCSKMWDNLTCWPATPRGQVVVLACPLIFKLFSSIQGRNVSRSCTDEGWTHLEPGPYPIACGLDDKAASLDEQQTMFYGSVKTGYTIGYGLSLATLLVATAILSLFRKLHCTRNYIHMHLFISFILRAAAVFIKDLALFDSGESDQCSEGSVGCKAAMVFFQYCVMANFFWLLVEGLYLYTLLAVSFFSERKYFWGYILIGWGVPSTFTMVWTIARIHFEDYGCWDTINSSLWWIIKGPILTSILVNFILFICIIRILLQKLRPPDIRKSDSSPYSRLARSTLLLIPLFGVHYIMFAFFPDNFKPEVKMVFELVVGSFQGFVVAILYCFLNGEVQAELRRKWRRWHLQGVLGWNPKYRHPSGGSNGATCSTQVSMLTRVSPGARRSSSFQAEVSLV
Format: cell membranes, Membrane. The following applies: ht-29.

Series [3] concerns the target C-C chemokine receptor type 2 (Homo sapiens, UniProt P41597). Format: cell membranes, CHO-K1, Membrane. The note with it: cho-k1. Note: in other assays of this panel Not Active means under 50% inhibition at 10 µM.
The target in another series is D(1A) dopamine receptor (Homo sapiens, UniProt P21728). Kind of series: DRUGMATRIX: Dopamine D1 radioligand binding (ligand: [3H] SCH-23390). The note with it: cho; Not Active = under 50% inhibition at 10 µM. Format: cell membranes, Membrane.
Series [4] in a line: DRUGMATRIX: Glutamate, NMDA, Phencyclidine radioligand binding (ligand: [3H] TCP). Format: cell membranes, Rattus norvegicus, Wistar, Cerebral cortex, Membrane. The following applies: Not Active = under 50% inhibition at 10 µM.
The next series addresses Glycine receptor (Rattus norvegicus, UniProt P22771+P24524+P07727+P20781). In kind it is cell membranes, Wistar, Spinal cord, Membrane.
The next series concerns the target T3, Progesterone receptor (Bos taurus, UniProt Q690N0).
T3 sequence (Q690N0 whole entry): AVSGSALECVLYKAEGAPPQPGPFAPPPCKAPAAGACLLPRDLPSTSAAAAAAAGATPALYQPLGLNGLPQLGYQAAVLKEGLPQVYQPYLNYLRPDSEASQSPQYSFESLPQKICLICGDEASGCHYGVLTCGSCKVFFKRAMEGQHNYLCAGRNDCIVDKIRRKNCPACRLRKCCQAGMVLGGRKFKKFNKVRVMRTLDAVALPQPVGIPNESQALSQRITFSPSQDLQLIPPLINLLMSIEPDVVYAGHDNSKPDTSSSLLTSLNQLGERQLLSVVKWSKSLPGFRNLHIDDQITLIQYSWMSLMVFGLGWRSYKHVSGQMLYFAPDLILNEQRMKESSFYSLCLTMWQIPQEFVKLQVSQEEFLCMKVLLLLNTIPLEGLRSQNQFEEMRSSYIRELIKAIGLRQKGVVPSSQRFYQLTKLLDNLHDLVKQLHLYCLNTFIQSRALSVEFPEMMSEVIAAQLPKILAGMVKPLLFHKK
Kind of series: DRUGMATRIX: Progesterone radioligand binding (ligand: [3H] R-5020). Format: tissue-based, Uterus. The note with it: Not Active = under 50% inhibition at 10 µM.

The next series deals with T4, Neutrophil elastase (Homo sapiens, UniProt P08246).
T4 sequence (P08246 whole entry): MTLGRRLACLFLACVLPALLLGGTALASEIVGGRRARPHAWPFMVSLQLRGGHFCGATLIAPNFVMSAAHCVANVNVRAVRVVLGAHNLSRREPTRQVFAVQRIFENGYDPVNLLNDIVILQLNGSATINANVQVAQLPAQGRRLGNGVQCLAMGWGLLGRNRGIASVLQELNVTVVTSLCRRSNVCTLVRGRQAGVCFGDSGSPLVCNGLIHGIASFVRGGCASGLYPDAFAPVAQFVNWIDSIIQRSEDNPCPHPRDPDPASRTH
In kind it is tissue-based.

Series [5] deals with Receptor tyrosine-protein kinase erbB-2 (Homo sapiens, UniProt P04626). The experiment in a line: biochemical. Format: cell-based, Insect cells. The note with it: insect cells.
Series [6] concerns the target T5, 5-hydroxytryptamine receptor 1A (Rattus norvegicus, UniProt P19327). Note: in other assays of this panel Not Active means under 50% inhibition at 10 µM.
T5 sequence (P19327 whole entry): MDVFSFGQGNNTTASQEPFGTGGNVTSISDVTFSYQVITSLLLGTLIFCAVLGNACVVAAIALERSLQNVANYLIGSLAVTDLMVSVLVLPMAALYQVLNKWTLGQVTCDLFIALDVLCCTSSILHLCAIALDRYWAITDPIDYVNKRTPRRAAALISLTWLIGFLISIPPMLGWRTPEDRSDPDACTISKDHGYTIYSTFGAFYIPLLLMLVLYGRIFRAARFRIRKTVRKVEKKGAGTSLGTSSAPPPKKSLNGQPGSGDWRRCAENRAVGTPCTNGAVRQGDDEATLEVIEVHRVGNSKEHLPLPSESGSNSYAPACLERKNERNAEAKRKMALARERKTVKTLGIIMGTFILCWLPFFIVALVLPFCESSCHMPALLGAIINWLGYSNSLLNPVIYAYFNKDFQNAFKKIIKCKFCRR
In kind it is cell membranes, Membrane. The note with it: cho-k1.

A further series has as its target Cytochrome P450 2E1 (Homo sapiens, UniProt P05181). The following applies: bti-tn-5b1-4. Note: in other assays of this panel Not Active means under 50% inhibition at 10 µM.

Usually IC50 stands for the midpoint of a concentration-inhibition curve. Broadly, the Ki is the equilibrium dissociation constant of an inhibitor or competing ligand from its target.

Chain of Sodium-dependent noradrenaline transporter (P23975 whole entry): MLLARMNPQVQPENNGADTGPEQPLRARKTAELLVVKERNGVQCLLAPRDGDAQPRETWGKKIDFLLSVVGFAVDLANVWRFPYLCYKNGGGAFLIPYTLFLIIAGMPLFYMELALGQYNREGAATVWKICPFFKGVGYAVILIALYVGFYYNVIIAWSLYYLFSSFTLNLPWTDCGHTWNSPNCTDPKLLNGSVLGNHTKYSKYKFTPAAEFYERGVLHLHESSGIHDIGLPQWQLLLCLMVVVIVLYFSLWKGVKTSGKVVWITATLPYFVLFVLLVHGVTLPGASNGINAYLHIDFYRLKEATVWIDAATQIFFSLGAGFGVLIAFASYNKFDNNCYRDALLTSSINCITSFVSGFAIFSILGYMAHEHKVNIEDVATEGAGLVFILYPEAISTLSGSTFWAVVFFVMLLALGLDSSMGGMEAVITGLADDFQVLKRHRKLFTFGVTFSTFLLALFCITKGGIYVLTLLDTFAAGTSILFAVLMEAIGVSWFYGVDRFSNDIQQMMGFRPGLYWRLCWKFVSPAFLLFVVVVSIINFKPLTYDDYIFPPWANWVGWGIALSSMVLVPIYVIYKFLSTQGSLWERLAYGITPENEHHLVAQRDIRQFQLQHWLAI
Chain of Cytochrome P450 2E1 (P05181 whole entry): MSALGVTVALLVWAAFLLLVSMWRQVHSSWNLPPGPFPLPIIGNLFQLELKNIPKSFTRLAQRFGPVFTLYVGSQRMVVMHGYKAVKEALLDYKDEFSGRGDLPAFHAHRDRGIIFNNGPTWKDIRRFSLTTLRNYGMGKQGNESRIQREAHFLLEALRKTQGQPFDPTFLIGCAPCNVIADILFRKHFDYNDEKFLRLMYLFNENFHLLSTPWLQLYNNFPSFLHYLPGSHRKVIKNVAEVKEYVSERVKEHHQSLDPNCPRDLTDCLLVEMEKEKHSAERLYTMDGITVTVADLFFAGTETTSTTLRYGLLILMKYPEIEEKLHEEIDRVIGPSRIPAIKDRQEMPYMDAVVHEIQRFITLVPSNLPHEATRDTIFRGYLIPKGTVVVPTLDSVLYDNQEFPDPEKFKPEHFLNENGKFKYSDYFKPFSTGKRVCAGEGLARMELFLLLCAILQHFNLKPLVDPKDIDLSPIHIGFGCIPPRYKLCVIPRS
Chain of D(1A) dopamine receptor (P21728 whole entry): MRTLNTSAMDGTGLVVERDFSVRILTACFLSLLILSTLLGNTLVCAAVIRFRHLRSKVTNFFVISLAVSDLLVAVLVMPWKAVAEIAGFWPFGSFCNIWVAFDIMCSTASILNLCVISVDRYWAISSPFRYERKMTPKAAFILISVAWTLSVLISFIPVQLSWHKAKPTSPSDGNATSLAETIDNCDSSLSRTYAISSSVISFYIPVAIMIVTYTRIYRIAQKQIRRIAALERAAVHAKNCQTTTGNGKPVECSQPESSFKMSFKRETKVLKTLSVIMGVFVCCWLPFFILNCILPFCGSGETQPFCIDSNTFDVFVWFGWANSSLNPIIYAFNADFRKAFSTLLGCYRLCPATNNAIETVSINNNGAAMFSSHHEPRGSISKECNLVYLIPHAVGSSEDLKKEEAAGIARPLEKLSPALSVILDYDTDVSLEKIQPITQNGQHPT
Chain of C-C chemokine receptor type 2 (P41597 whole entry): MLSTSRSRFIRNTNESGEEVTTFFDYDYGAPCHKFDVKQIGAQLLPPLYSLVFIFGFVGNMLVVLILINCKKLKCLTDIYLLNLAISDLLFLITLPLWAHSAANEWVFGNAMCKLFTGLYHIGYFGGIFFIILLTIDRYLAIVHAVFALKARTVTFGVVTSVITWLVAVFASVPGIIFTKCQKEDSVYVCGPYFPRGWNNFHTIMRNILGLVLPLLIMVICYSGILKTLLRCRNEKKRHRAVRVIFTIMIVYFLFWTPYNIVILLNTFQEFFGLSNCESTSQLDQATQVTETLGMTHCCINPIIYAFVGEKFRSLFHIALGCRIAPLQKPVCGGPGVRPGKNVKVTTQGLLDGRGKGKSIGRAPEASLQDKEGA
Chain of Receptor tyrosine-protein kinase erbB-2 (P04626 whole entry): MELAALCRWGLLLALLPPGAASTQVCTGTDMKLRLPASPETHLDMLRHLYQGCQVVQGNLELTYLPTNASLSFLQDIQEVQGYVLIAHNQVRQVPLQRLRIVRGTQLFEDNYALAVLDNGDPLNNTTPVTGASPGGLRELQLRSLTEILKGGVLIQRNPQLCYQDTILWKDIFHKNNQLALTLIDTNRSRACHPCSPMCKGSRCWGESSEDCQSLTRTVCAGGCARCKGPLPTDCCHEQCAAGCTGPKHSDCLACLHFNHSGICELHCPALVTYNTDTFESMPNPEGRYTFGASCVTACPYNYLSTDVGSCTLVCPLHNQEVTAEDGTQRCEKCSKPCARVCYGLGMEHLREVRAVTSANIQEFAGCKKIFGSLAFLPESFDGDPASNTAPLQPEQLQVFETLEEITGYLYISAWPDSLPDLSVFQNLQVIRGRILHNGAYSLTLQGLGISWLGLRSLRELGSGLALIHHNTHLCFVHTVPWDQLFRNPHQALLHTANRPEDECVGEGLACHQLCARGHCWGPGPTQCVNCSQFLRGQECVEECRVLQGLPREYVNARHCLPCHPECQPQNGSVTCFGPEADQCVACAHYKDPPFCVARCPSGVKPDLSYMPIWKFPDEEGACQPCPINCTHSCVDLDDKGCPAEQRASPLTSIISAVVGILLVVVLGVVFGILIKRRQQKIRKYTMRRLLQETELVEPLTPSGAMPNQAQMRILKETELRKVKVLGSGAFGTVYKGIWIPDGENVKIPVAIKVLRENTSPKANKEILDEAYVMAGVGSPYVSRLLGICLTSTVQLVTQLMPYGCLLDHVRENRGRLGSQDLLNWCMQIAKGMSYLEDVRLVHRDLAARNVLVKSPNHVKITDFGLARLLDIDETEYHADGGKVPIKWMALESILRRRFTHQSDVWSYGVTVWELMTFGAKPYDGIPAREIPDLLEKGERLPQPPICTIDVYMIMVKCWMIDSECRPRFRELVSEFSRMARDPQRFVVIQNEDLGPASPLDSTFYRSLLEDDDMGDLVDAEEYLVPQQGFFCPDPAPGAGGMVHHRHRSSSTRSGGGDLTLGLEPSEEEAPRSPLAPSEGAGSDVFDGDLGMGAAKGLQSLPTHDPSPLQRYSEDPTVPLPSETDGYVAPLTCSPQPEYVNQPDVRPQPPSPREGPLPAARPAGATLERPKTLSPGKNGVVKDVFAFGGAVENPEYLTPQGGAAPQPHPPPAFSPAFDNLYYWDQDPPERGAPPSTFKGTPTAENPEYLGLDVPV

In the case of `COc1cc(NS(=O)(=O)c2ccc(N)cc2)nc(OC)n1` [SULFADIMETHOXINE], the IC50 result (in [1] (mdck); against Substance-K receptor; in series [2]; in series [3]; at D(1A) dopamine receptor; in [4]) was “Not Active” throughout. Moreover, the IC50 result (on Glycine receptor; at Progesterone receptor; against Neutrophil elastase; in series [5]; in series [6]; against Cytochrome P450 2E1) was “Not Active” each time. Besides, the Ki entry (in series [4]; at Cytochrome P450 2E1) was “Not Active” each time.

In the case of `Cc1cc(C)nc(NS(=O)(=O)c2ccc(N)cc2)n1` [SULFAMETHAZINE], the IC50 entry (in [1] (mdck); against Substance-K receptor; in series [2]; on D(1A) dopamine receptor; in series [4]; against Glycine receptor) was “Not Active” in each case. The IC50 entry (on Progesterone receptor; against Neutrophil elastase; in series [5]; in series [6]; at Cytochrome P450 2E1) was “Not Active” in each case. Also, the Ki entry (in [3]; in series [4]; on Cytochrome P450 2E1) was “Not Active” throughout.

On to `C[C@]1(Cn2ccnn2)[C@H](C(=O)O)N2C(=O)C[C@H]2S1(=O)=O` [TAZOBACTAM], for which the half-inhibitory concentration (IC50) result (in [1] (mdck); on Substance-K receptor; in series [2]; in series [3]; on D(1A) dopamine receptor; in series [4]) was “Not Active” in each case. In addition, the half-inhibitory concentration (IC50) entry (on Glycine receptor; on Progesterone receptor; against Neutrophil elastase; in series [5]; in series [6]; against Cytochrome P450 2E1) was “Not Active” throughout. For the same compound, the Ki entry (in [4]; on Cytochrome P450 2E1) was “Not Active” throughout.

`CN1C(C(=O)Nc2ccccn2)=C(O)c2sccc2S1(=O)=O` [TENOXICAM]: the IC50 entry (in [1] (mdck); at Substance-K receptor; in [2]; in series [3]; at D(1A) dopamine receptor; in [4]) was “Not Active” each time. The IC50 entry (at Glycine receptor; at Progesterone receptor; at Neutrophil elastase; in [5]; in series [6]; against Cytochrome P450 2E1) was “Not Active” in each case. The inhibition constant (Ki) result (in [4]; at Cytochrome P450 2E1) was “Not Active” each time.

Regarding `O=C1CCC(N2C(=O)c3ccccc3C2=O)C(=O)N1` (configuration not stated) [THALIDOMIDE], the IC50 entry (in series [1] (mdck); against Substance-K receptor; in [2]; in [3]; at D(1A) dopamine receptor; in series [4]) was “Not Active” throughout. For the same compound, the IC50 entry (against Glycine receptor; at Progesterone receptor; at Neutrophil elastase; in series [5]; in series [6]; on Cytochrome P450 2E1) was “Not Active” throughout. In addition, the Ki result (in series [4]; on Cytochrome P450 2E1) was “Not Active” each time.

Regarding `Cc1cccc(Nc2ccncc2S(=O)(=O)NC(=O)NC(C)C)c1` [TORSEMIDE], the IC50 entry (in series [1] (mdck); against Substance-K receptor; in series [2]; in series [3]; on D(1A) dopamine receptor; in series [4]) was “Not Active” in each case. Also, the IC50 entry (at Glycine receptor; on Progesterone receptor; at Neutrophil elastase; in [5]; in [6]; on Cytochrome P450 2E1) was “Not Active” in each case. Moreover, the Ki result (in series [4]; on Cytochrome P450 2E1) was “Not Active” each time.

Consider `CC(C)C[C@H](NC(=O)[C@@H](O)[C@H](N)Cc1ccccc1)C(=O)O` [UBENIMEX], for which the IC50 result (in series [1] (mdck); against Substance-K receptor; in [2]; in series [3]; at D(1A) dopamine receptor; in [4]) was “Not Active” in each case. Further, the IC50 entry (on Glycine receptor; on Progesterone receptor; on Neutrophil elastase; in [5]; in [6]; at Cytochrome P450 2E1) was “Not Active” each time. The Ki result (in [4]; on Cytochrome P450 2E1) was “Not Active” each time.

Consider `Cc1onc(-c2ccccc2)c1-c1ccc(S(N)(=O)=O)cc1` [VALDECOXIB], for which the IC50 in [1] (read-out: IC50) is 2.93 µM; against Substance-K receptor, “Not Active”; in series [2] it was “Not Active”; in [3], “Not Active”; on D(1A) dopamine receptor, “Not Active”; in series [4], “Not Active”. For the same compound, the IC50 entry (against Glycine receptor; on Progesterone receptor; against Neutrophil elastase; in series [5]; in series [6]; on Cytochrome P450 2E1) was “Not Active” in each case. In addition, the Ki in series [1] (read-out: Ki) was 2.9 µM; in [4], “Not Active”; at Cytochrome P450 2E1 it was “Not Active”.

In the case of `CC[C@]1(O)C[C@@H]2CN(CCc3c([nH]c4ccccc34)[C@@](C(=O)OC)(c3cc4c(cc3OC)N(C)[C@H]3[C@@](O)(C(=O)OC)[C@H](OC(C)=O)[C@]5(CC)C=CCN6CC[C@]43[C@@H]65)C2)C1` [VINBLASTINE], the IC50 result (in series [1] (mdck); on Substance-K receptor; in series [2]; in [3]; on D(1A) dopamine receptor; in series [4]) was “Not Active” throughout. Also, the IC50 entry (at Glycine receptor; on Progesterone receptor; against Neutrophil elastase; in [5]; in series [6]; on Cytochrome P450 2E1) was “Not Active” in each case. The Ki entry (in series [4]; on Cytochrome P450 2E1) was “Not Active” in each case.
